Each molecule was assayed against T1, Orexin/Hypocretin receptor type 1 (Rattus norvegicus, UniProt P56718) (assay: FLIPR Ca2+ Flux Assay: Chinese hamster ovary (CHO) cells expressing the rat orexin-1 receptor or the human orexin-2 receptor, are grown in Iscove's modified DMEM containing 2 mM L-glutamine, […], 1% hypoxanthine-thymidine supplement, 100 U/ml penicillin, 100 ug/ml streptomycin and 10% heat-inactivated fetal calf serum (FCS). The cells are seeded at 20,000 cells/well into Becton-Dickinson black 384-well clear bottom sterile plates coated with poly-D-lysine. All reagents were from GIBCO-Invitrogen Corp. The seeded plates are incubated overnight at 37° C. and 5% CO2. Ala-6,12 human orexin-A as the agonist is prepared as a 1 mM stock solution in 1% bovine serum albumin (BSA) and diluted in assay buffer (HBSS containing 20 mM HEPES, 0.1% BSA and 2.5 mM probenecid, pH7.4) for use in the assay at a final concentration of 70 pM. Test compounds are prepared as 10 mM stock solution in DMSO, then diluted in 384-well plates, first in DMSO, then assay buffer. On the day of the assay, cells are washed 3 times with 100 ul assay buffer and then incubated for 60 min (37° C., 5% CO2) in 60 ul assay buffer containing 1 uM Fluo-4AM ester, 0.02% pluronic acid, and 1% BSA. The dye loading solution is then aspirated and cells are washed 3 times with 100 ul assay buffer. 30 ul of that same buffer is left in each well. Within the Fluorescent Imaging Plate Reader (FLIPR, Molecular Devices), test compounds are added to the plate in a volume of 25 ul, incubated for 5 min and finally 25 ul of agonist is added. Fluorescence is measured for each well at 1 second intervals for 5 minutes and the height of each fluorescence peak is compared to the height of the fluorescence peak induced by 70 pM Ala-6,12 orexin-A with buffer in place of antagonist.).
T1 sequence (P56718 whole entry): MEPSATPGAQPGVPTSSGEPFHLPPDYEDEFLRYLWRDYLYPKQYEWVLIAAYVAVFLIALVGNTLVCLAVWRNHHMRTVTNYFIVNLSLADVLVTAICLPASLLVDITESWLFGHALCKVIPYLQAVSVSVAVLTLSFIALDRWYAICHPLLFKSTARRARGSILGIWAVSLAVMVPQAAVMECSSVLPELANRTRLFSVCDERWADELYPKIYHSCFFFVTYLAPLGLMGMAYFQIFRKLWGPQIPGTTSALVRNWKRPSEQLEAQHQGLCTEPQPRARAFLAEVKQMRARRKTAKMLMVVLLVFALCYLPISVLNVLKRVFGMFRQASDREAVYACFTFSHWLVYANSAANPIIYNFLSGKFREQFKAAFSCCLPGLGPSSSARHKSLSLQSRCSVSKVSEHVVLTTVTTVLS
Assay type: functional

Compound	IC50
C[C@@H]1CC[C@@H](Oc2cc(C#N)ccn2)CN1C(=O)c1ccccc1-n1nccn1	3.65 µM
Cc1nc(-c2ccccc2C(=O)N2C[C@H](Oc3cc(C#N)ccn3)CC[C@H]2C)no1	> 10 µM
C[C@@H]1CC[C@@H](Oc2cc(C#N)ccn2)CN1C(=O)c1ccccc1-c1ncccn1	4.87 µM

What follows are molecules tested against T2, Orexin receptor type 2 (Homo sapiens, UniProt O43614) (assay: (§1) Radioligand Binding Assay: The inhibition constant (Ki) is determined using a radioligand binding assay (described in Bergman et. al. Bioorg. Med. Chem. Lett. 2008, 18, 1425-1430).).
T2 sequence (O43614 whole entry): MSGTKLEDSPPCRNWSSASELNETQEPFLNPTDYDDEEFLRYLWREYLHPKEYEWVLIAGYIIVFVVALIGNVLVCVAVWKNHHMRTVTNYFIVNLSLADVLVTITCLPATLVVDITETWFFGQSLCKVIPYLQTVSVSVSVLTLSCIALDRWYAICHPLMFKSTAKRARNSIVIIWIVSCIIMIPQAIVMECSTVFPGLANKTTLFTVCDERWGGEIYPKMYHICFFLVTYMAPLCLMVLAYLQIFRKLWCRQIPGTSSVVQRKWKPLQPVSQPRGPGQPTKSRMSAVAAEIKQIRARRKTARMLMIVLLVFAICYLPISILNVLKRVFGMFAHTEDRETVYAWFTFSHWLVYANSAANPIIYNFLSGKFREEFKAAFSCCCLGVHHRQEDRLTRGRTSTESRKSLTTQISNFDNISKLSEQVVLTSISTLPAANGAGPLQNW

Compound	Ki
C[C@@H]1CC[C@@H](Oc2cc(C#N)ccn2)CN1C(=O)c1ccccc1-n1nccn1	0.0016 µM
Cc1nc(-c2ccccc2C(=O)N2C[C@H](Oc3cc(C#N)ccn3)CC[C@H]2C)no1	0.0045 µM
C[C@@H]1CC[C@@H](Oc2cc(C#N)ccn2)CN1C(=O)c1ccccc1-c1ncccn1	0.0013 µM
C[C@@H]1CC[C@@H](Oc2cc(C#N)ccn2)CN1C(=O)c1ccc(C#N)cc1-n1nccn1	1.36 µM

Each molecule was assayed against T3, Orexin/Hypocretin receptor type 1 (Homo sapiens, UniProt O43613) (assay: as §1).
T3 sequence (O43613 whole entry): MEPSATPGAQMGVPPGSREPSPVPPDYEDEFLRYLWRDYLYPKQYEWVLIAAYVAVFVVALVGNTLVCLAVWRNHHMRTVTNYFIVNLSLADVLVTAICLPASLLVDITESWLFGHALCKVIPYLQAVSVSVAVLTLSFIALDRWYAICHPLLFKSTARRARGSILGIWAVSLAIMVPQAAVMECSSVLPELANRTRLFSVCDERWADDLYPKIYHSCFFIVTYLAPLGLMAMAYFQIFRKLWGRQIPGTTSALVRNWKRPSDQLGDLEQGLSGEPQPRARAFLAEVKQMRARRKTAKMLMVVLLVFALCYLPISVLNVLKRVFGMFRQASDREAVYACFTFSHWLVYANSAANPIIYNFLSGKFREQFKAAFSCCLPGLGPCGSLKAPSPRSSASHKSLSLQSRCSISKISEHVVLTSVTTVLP

Compound	Ki
C[C@@H]1CC[C@@H](Oc2cc(C#N)ccn2)CN1C(=O)c1ccccc1-n1nccn1	0.813 µM
Cc1nc(-c2ccccc2C(=O)N2C[C@H](Oc3cc(C#N)ccn3)CC[C@H]2C)no1	1.66 µM
C[C@@H]1CC[C@@H](Oc2cc(C#N)ccn2)CN1C(=O)c1ccccc1-c1ncccn1	0.761 µM
C[C@@H]1CC[C@@H](Oc2cc(C#N)ccn2)CN1C(=O)c1ccc(C#N)cc1-n1nccn1	34.5 µM
